Here are results for three molecules from PubChem BioAssay (NCI).

Structures are written as SMILES.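 Test compounds were applied to cells in 96-well plates for 48 hours at 5 doses. Abbreviation: GI50, concentration required for 50% inhibition of growth. The concentration for full growth arrest is given as TGI.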

Some test systems named below: OVCAR-4 ovarian; A498 renal; NCI-H460 lung; HCC-2998 colon; OVCAR-5 ovarian; RXF 393 renal; U251 CNS; OVCAR-8 ovarian; MDA-MB-231 breast; HT29 colon.
What all share (test): NCI tumour cell line growth inhibition, 48 h

On to `ClCCN(CCCl)c1ccc(-n2cnc3c(Cl)ncnc32)cc1`, for which the GI50 with OVCAR-4 ovarian is 1.85 µM; in the experiment on A498 renal, 11.9 µM; in the experiment with NCI-H460 lung, 2.14 µM; with HCC-2998 colon, 1.84 µM; in the experiment with OVCAR-5 ovarian, 17.9 µM; with RXF 393 renal, 1.86 µM. In addition, the GI50 in the experiment with U251 CNS is 2.91 µM; in the experiment with OVCAR-8 ovarian, 2.37 µM; in the experiment with MDA-MB-231 breast it was 3.28 µM; with HT29 colon, 2.07 µM. In addition, the TGI in the experiment on OVCAR-4 ovarian was determined as 3.33 µM; in the experiment on A498 renal it was 24.5 µM; with NCI-H460 lung, 4.88 µM; with HCC-2998 colon, 3.41 µM; in the experiment on OVCAR-5 ovarian, 35.9 µM; in the experiment with RXF 393 renal, 3.33 µM. In addition, the TGI stood at 9.1 µM with U251 CNS, 5.38 µM with OVCAR-8 ovarian, 11.1 µM in the experiment on MDA-MB-231 breast and 4.15 µM with HT29 colon.

On to `O=C(Nc1cc(C(F)(F)F)ccc1F)Nc1n[nH]c2ccccc12`, for which the GI50 with OVCAR-4 ovarian, with A498 renal, with NCI-H460 lung, in the experiment on HCC-2998 colon, in the experiment on OVCAR-5 ovarian and in the experiment with RXF 393 renal was above 100 µM throughout. In addition, the GI50 in the experiment with U251 CNS, in the experiment on OVCAR-8 ovarian, in the experiment on MDA-MB-231 breast and with HT29 colon was above 100 µM in each case. In addition, the TGI in the experiment on OVCAR-4 ovarian, with A498 renal, with NCI-H460 lung, with HCC-2998 colon, in the experiment on OVCAR-5 ovarian and in the experiment on RXF 393 renal was above 100 µM in each case. The TGI in the experiment on U251 CNS, in the experiment on OVCAR-8 ovarian, in the experiment with MDA-MB-231 breast and with HT29 colon was above 100 µM throughout.

For `CCN(CC)c1ccc2c(c1)Oc1nc(N)c(C#N)c(N)c1C2Sc1ccc(SC)cc1` (stereo not given), the GI50 in the experiment with OVCAR-4 ovarian is 1.75 µM; with A498 renal, 1.88 µM; with NCI-H460 lung it was 1.8 µM; in the experiment on HCC-2998 colon, 1.96 µM; in the experiment on OVCAR-5 ovarian, 2.37 µM; in the experiment on RXF 393 renal, 1.66 µM. Moreover, the GI50 was 1.35 µM with U251 CNS, 2.08 µM with OVCAR-8 ovarian, 1.54 µM with MDA-MB-231 breast and 2.33 µM in the experiment with HT29 colon. For the same molecule, the TGI in the experiment on OVCAR-4 ovarian was found to be 3.4 µM; in the experiment with A498 renal it was 3.44 µM; in the experiment on NCI-H460 lung, 3.69 µM; with HCC-2998 colon it was 3.47 µM; in the experiment with OVCAR-5 ovarian, 4.75 µM; in the experiment on RXF 393 renal it was 3.31 µM. Also, the TGI is 2.7 µM with U251 CNS, 4.43 µM in the experiment on OVCAR-8 ovarian, 3.07 µM in the experiment with MDA-MB-231 breast and 4.61 µM with HT29 colon.
